# Test results published in patent publication US9533973B2, “Allosteric modulators of 5-hydroxytryptamine 2C receptor (5-HT2CR)” (THE BOARD OF REGENTS OF THE UNIVERSITY OF TEXAS SYSTEM, priority 2011, dated 2017).
# Legend:
# 5-HT2CR = target: T1, 5-HT2CR (Homo sapiens, UniProt P28335); set-up: host or cells: stably transfected HEK293 cells (Im et al., Mol. Pharmacol. 64, 78-84, 2003); conditions: Im et al., 2003, cited from earlier work
# T1 sequence (P28335 33-458): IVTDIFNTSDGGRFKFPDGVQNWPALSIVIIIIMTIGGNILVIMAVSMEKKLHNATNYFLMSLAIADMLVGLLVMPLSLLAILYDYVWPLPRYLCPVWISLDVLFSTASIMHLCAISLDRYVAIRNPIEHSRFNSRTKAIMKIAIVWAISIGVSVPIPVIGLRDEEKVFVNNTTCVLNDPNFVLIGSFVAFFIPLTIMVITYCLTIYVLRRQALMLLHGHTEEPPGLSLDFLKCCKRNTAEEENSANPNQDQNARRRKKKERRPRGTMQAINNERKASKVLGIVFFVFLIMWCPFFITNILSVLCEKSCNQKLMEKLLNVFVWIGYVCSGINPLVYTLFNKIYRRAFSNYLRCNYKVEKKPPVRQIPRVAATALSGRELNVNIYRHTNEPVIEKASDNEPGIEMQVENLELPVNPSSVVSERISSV
# rats = experiment: Spontaneous locomotor activity (open field horizontal ambulation); assay type: in vivo, rat
# Experimental: Locomotor activity was monitored and quantified under low light conditions using a modified open field activity system (San Diego Instruments, San Diego, Calif.) according to previous publications with minor modifications (Cunningham et al., 2011, Neuropharmacology 61:513-523). Clear Plexiglass chambers (40×40×40 cm) were surrounded by a 4×4 photobeam matrix positioned 4 cm from the chamber floor. Consecutive photobeam breaks within the 16×16 cm of the activity monitor were recorded as central ambulation. Peripheral ambulation was counted as consecutive beam breaks in the surrounding perimeter. Central and peripheral ambulations were summed to provide a measure of total horizontal ambulation. […] The effects of CYD-1-78-2 and CYD-1-79 alone or in combination with the selective 5-HT2CR agonist WAY163909 were established in a within-subjects design. To control for order effects, drug doses and vehicles were administered in random sequence to individual rats across sessions such that all rats received all treatment combinations and were tested every three days. Rats received vehicle (saline, 1 mL/kg, i.p.), CYD-1-78-2 (0.5, 1, or 3 mg/kg, i.p.) or the combination of CYD-1-78-2 (0.5 mg/kg, i.p.) plus WAY163909 (1 mg/kg, i.p.) immediately prior to placement in activity monitors on each test day; locomotor activity was assessed for 90 min. In a separate cohort of rats, rats received vehicle (saline, 1 mL/kg, i.p.), CYD-1-79 (0.5, 1, or 5 mg/kg, i.p.) or the combination of CYD-1-79 (0.5 mg/kg, i.p.) plus WAY163909 (1 mg/kg, i.p.) immediately prior to placement in activity monitors on each test day; locomotor activity was assessed for 90 min. The combination of CYD-1-78-2 plus WAY163909 or CYD-1-79 plus WAY163909 was administered simultaneously.
# Locomotor activity data are presented as mean total horizontal ambulation (±SEM) over the entire 90-min session or within 5 min time bins across the session. A two-way ANOVA for repeated measures for the factors of treatment and time was conducted. The main effect of treatment on total horizontal ambulation was analyzed with a repeated measures, one-way analysis of variance using the GLM procedure (SAS for Windows). Subsequent a priori comparisons between means for total horizontal ambulation were made using the Dunnett's procedure, with vehicle (saline) as the comparator.
smiles,measurement,setting,value
CCCCCCCCCCC[C@@H]1CCN[C@H](C(=O)N[C@@H]([C@H]2O[C@H](SC)[C@H](O)[C@@H](O)[C@H]2O)[C@H](C)Cl)C1.Cl [CYD-1-78-2],intrinsic activation of GTPγS binding and IP3 release/[3H]IP accumulation in the absence of 5-HT,5-HT2CR; HEK293 cell line (~45 pmol/mg protein),detected intrinsic activation
same,concentrations giving positive allosteric modulation in the presence of 5-HT,5-HT2CR,less than 10 μM
same,modulation at higher concentrations in the presence of 5-HT,5-HT2CR; concentrations above 10 μM,negative allosteric modulation
same,effect on spontaneous locomotor activity,rats; 0.5 mg/kg alone,ineffective
same,"total horizontal ambulation versus saline, combination with WAY163909","rats; 0.5 mg/kg i.p. plus WAY163909 1 mg/kg i.p., 90-min session, p<0.05",significantly reduces
same,"horizontal ambulation versus saline in 5-min intervals, combination with WAY163909","rats; 0.5 mg/kg i.p. plus WAY163909 1 mg/kg i.p., CYD-1-78-2: interval 1 and 2, CYD-1-79: interval 2, p<0.05",significantly reduces
same,horizontal ambulation versus saline in 5-min intervals,"rats; 1 mg/kg i.p., at interval 4, 5 and 6, p<0.05",significantly reduces
same,total horizontal ambulation summed across the 90-min test session versus saline,"rats; 1 mg/kg i.p., p<0.05",significantly reduces
same,horizontal ambulation versus saline in 5-min intervals,"rats; 3 mg/kg i.p., at interval 1, 2, 3 and 11, p<0.05",significantly reduces
same,total horizontal ambulation summed across the 90-min test session versus saline,"rats; 3 mg/kg i.p., p<0.05",significantly reduces
same,total ambulations,"rats; 1 and 3 mg/kg, i.p., unhabituated animals, 90 minutes",dose-dependently decreases
same,selective 5-HT2CR agonist-mediated suppression of spontaneous locomotor activity,rats; with WAY163909,augment
